In patent US11059815B2, “Synthesis of small molecule histone deacetylase 6 degraders, compounds formed thereby, and pharmaceutical compositions containing them” (Wisconsin Alumni Research Foundation, priority 2018, dated 2021):
One block for each compound: values may come before it.

What was measured:
acetylated histone H3 = experiment: Western blot of acetylated histone H3 in MM1S cells; assay type: cell-based, human
Text: (§1) FIGS. 12A, 12B, and 12C are a series of western blots showing that degrader 12d selectively promotes HDAC6 degradation in MM1S cells.
(§2) To further examine the selectivity of the new generation of HDAC6 degraders, compound 12d was compared to SAHA, Next-A, degrader 1 and pan-inhibitor 2 for change of acetylated a-tubulin and acetylated histone H3.
(§3) When the cells reached 90% confluence, they were harvested and plated 1×10^6 cells per well in 6-well plate. After overnight seeding, the cells were treated with a solution of compounds or vehicle in culture medium. The culture medium was removed after treatment and then washed twice with cold PBS. To obtain whole cell lysate, all cells were treated with RIPA lysis buffer (25 mM Tris, pH 7-8, 150 mM NaCl, 0.1% SDS, 0.5% sodium deoxycholate, 1% Triton X-100, protease inhibitor cocktail (Roche, 1 tablet per 10 mL) and 1 mM PMSF) on ice for 10 minutes. Supernatant was collected after spinning down at 16,000 g at 4° C. for 15 minutes. Protein concentration was measured by using the Pierce BCA protein assay (Thermo Fisher Scientific). […] The Immunoblot was generated by ChemiDoc MP Imaging Systems (Bio-Rad) and analyzed by Image J software (only available for download online at https://imagej.net/Downloads). […]

acetylated tubulin = experiment: Western blot of acetylated tubulin in MM1S cells; assay type: cell-based, human; conditions: 100 nM
Text: as §1, §2
as §3, with “Scientific). About 10-40 μg of total protein was mixed with 4× Laemmli Loading Dye (250 mM Tris, pH 6.8, 40% glycerol, 5% SDS, 0.005% bromophenol blue, 4% BME) and heated at 95-100° C. for 5 minutes. The heated sample was then subjected to 7.5-12% SDS-PAGE and transferred to PVDF membrane (Bio-Rad,). The membrane was blocked in 5% non-fat milk (Bio-rad) in TBS-T washing buffer (137 mM NaCl, 20 mM Tris, 0.1% Tween) and then incubated with primary antibodies at 4° C. overnight.” for “Scientific).”
The activity of all eleven “n+4” VHL-based potential degraders to suppress HDAC6 expression was tested at 100 nM and compared to CRBN degrader 2 in MM1S cells. The resulting cells were analyzed for HDAC6 expression by in-cell ELISA (FIG. 15). […]

HDAC6 = biological target: T1, HDAC6 (Homo sapiens, UniProt Q9UBN7); experiment: In-cell ELISA of HDAC6 protein level in MM1S cells; assay type: cell-based; conditions: MM1.S, 6 h, 100% minus mean (± SD) relative HDAC6 expression; for inhibition at 0.01 µM: 10 nM, n=3, read-out: Degradation (%) 10 nM; for inhibition at 0.1 µM: 100 nM, n=3, read-out: Degradation (%) 100 nM
T1 construct: endogenous in cells; host or cells: MM1S (ATCC CRL-2974)
T1 sequence (Q9UBN7 1-1215): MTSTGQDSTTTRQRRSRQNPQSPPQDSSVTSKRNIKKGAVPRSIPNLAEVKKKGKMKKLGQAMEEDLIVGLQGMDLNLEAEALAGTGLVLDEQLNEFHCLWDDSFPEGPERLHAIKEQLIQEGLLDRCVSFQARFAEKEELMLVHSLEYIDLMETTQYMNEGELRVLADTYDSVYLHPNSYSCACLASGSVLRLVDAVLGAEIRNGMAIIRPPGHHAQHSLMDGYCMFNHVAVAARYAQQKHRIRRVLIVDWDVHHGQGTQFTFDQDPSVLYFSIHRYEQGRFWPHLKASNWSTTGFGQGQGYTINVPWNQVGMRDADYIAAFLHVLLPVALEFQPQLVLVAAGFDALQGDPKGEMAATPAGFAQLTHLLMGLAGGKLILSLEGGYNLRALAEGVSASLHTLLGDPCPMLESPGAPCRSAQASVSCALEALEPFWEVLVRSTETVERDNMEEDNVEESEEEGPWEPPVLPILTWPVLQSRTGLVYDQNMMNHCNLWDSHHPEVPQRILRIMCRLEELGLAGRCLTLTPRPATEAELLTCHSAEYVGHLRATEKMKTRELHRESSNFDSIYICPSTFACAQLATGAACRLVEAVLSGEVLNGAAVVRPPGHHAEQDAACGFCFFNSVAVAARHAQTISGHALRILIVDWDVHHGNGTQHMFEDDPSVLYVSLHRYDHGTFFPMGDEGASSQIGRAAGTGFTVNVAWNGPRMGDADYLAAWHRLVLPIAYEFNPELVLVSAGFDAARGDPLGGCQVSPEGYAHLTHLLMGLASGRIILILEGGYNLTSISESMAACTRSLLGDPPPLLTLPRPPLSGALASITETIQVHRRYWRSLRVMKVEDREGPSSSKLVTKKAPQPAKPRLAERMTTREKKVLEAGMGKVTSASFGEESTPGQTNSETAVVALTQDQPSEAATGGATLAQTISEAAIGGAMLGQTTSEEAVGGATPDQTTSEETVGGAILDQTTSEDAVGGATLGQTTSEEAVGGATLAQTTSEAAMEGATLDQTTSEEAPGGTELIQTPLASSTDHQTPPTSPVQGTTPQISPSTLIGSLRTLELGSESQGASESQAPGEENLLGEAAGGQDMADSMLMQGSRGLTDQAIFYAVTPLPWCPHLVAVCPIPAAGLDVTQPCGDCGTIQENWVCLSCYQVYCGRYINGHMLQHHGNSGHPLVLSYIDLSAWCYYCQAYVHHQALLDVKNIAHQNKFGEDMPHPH
Description: FIG. 9 is a histogram depicting the results of screening of compounds for HDAC6 degradation activity by in-cell ELISA. MM1S cells were treated with compounds at 100 nM (blue bars) or 10 nM (red bars) for 6 h. Data was normalized to vehicle (DMSO)-treated group and the bar graph represents as mean of relative HDAC6 protein level (n=3) with ±SD as error bar. Statistical significance was analyzed by one-way ANOVA. Not significant (ns) P>0.05, *P≤0.05, **P≤0.01, ***P≤0.001, ****P≤0.0001.
FIG. 11 is a graph depicting dose response of selected degrader candidates. MM1S cells were treated for 6 h and analyzed by in-cell ELISA. Data was normalized to vehicle (DMSO)-treated group and dot plot represented as mean relative expression (n=3) with ±SD as error bar. Nonlinear fitting of inhibitor concentration vs. response (three parameters) was generated by GraphPad Prism with R2 from 0.97 to 0.99.
FIG. 15 is a histogram depicting relative HDAC6 expression as a function of linker length for compounds 3a through 3k as described in the Examples section, Part 2. Human MM1S cells were treated with 100 nM degraders for 6 hours and analyzed by in-cell ELISA assay.
FIG. 17 is a dose-response curve for degraders 3j (n=1), 3k (n=12) and 2, at concentrations from 1 nM to 300 nM for 4 h in MM1S. See the Examples, Part 2.
To screen the new series of degraders, an in-cell ELISA assay was developed and validated. The compounds were treated at 100 nM and 10 nM in MM1S cells for 6 h. Resulting cells were then fixed and analyzed by in-cell ELISA. […] Degraders including 1 at 100 nM degraded 73.5% to 85.0% of HDAC6 with minor difference. At 10 nM concentration of compounds, obvious structure-activity-relationship (SAR) was observed. […] For example, 12d, 12h, 12i, 12o and 12p all achieved about 70% degradation. Among the C4-linked series, 12d with medium length linker (5+1) achieved most degradation in sub-series 12a-e (m=1). […] Among C5-linked series, the potency of sub-series 12l-p (m=1) increased with the linker length. […] It appeared that both the distance and linking positions contributed to the degradation efficiency. The rigid triazole ring in the middle of the linker likely modulated the plasticity of degrader-bridged ternary complex.
The amount of cellular HDAC6 was measured in response to concentrations of compounds from 0.1 nM to 1 μM. […] The new degraders had single-digit nanomolar DC50, which was about 3 to 5 fold of improvement from 9.12 nM of degrader 1. […] As discussed above, most PROTACs were designed to avoid degrading other proteins except the targeted POIs. However, in these studies, it was hypothesized that HDAC6 degraders with IKZF degradation will have enhanced anti-proliferation effect MM1S cells.
MM1S cells were harvested and plated with 5×10^5 cells in 100 μL media per well 96-wells plate. After overnight seeding, 25 μL media containing 5× dosing concentration of the compounds or vehicle was added to each well. After 6-hour treatment at 37° C. in a humidified 5% CO2 atmosphere, cells were fixed by adding 125 μL 8% formaldehyde in TBS buffer (137 mM NaCl, 25 mM Tris, 2.7 mM potassium chloride, pH 7.6) and incubated at room temperature (RT) for 15 minutes. Removal of fixing solution was followed by once rinse and twice washes with TBS-T washing buffer (137 mM NaCl, 20 mM Tris, 0.1% Tween, pH 7.6). Cells were then permeabilized by adding 100 μL 0.1% Triton-X in TBS and incubated at RT for 15 minutes. Removal of permeabilizing solution was followed by once rinse and once wash with TBS-T. Cellular endogenous peroxidases were quenched by adding 100 μL 1% H2O2 in TBS and incubation at RT for 20 minutes. Removal of quenching solution was followed by once rinse and once wash with TBS-T. Non-specific binding sites were blocked by adding […] 5% BSA in TBS-T (with 0.02% NaN3) and incubation at 4° C. overnight. […]

Compound: O=C(CCCCCCC(=O)Nc1ccccc1)NO [SAHA, Suberoylanilide hydroxamic acid, reference compound]
change of acetylated histone H3 (acetylated histone H3): strong acetylated histone H3 signal | change of acetylated tubulin (acetylated tubulin): didn't

Compound: CCCCN(Cc1ccc(C(=O)NO)cc1)C(=O)Nc1ccc(OCCCCn2cc(CCNc3cccc4c3C(=O)N(C3CCC(=O)NC3=O)C4=O)nn2)cc1 (centres unmarked) [Compound 12h, 4-((1-butyl-3-(4-(4-(4-(2-((2-(2,6-dioxopiperidin-3-yl)-1,3-dioxoisoindolin-4-yl)amino)ethyl)-1H-1,2,3-triazol-1-yl)butoxy)phenyl)ureido)methyl)-N-hydroxybenzamide]
inhibition at 0.01 µM (HDAC6): ~70% | inhibition at 0.1 µM (HDAC6): 79.2 ± 0.9%

Compound: CCCCN(Cc1ccc(C(=O)NO)cc1)C(=O)Nc1ccc(OCCCCn2cc(CNc3cccc4c3C(=O)N(C3CCC(=O)NC3=O)C4=O)nn2)cc1 (centres unmarked) [Compound 12c, 4-((1-butyl-3-(4-(4-(4-(((2-(2,6-dioxopiperidin-3-yl)-1,3-dioxoisoindolin-4-yl)amino)methyl)-1H-1,2,3-triazol-1-yl)butoxy)phenyl)ureido)methyl)-N-hydroxybenzamide]
inhibition at 0.01 µM (HDAC6): 64.3 ± 3.2% | inhibition at 0.1 µM (HDAC6): 85 ± 1.2%

More lines, now with the values ahead:

inhibition at 0.01 µM (HDAC6): 64.8 ± 1% | inhibition at 0.1 µM (HDAC6): 84.2 ± 0.4%
Compound: CCCCN(Cc1ccc(C(=O)NO)cc1)C(=O)Nc1ccc(OCCCn2cc(CCNc3cccc4c3C(=O)N(C3CCC(=O)NC3=O)C4=O)nn2)cc1 (centres unmarked) [Compound 12g, 4-((1-butyl-3-(4-(3-(4-(2-((2-(2,6-dioxopiperidin-3-yl)-1,3-dioxoisoindolin-4-yl)amino)ethyl)-1H-1,2,3-triazol-1-yl)propoxy)phenyl)ureido)methyl)-N-hydroxybenzamide]

inhibition at 0.01 µM (HDAC6): 60.9 ± 0.4% | inhibition at 0.1 µM (HDAC6): 81.9 ± 0.4%
Compound: CCCCN(Cc1ccc(C(=O)NO)cc1)C(=O)Nc1ccc(OCCCn2cc(CCCNc3ccc4c(c3)C(=O)N(C3CCC(=O)NC3=O)C4=O)nn2)cc1 (centres unmarked) [Compound 12r, 4-((1-butyl-3-(4-(3-(4-(3-((2-(2,6-dioxopiperidin-3-yl)-1,3-dioxoisoindolin-5-yl)amino)propyl)-1H-1,2,3-triazol-1-yl)propoxy)phenyl)ureido)methyl)-N-hydroxybenzamide]

inhibition at 0.01 µM (HDAC6): ~70% | inhibition at 0.1 µM (HDAC6): 84.7 ± 1%
Compound: CCCCN(Cc1ccc(C(=O)NO)cc1)C(=O)Nc1ccc(OCCCCCn2cc(CNc3ccc4c(c3)C(=O)N(C3CCC(=O)NC3=O)C4=O)nn2)cc1 (centres unmarked) [Compound 12o, 4-((1-butyl-3-(4-((5-(4-(((2-(2,6-dioxopiperidin-3-yl)-1,3-dioxoisoindolin-5-yl)amino)methyl)-1H-1,2,3-triazol-1-yl)pentyl)oxy)phenyl)ureido)methyl)-N-hydroxybenzamide]

inhibition at 0.01 µM (HDAC6): 49.3 ± 0.6% | inhibition at 0.1 µM (HDAC6): 81.8 ± 0.9%
Compound: CCCCN(Cc1ccc(C(=O)NO)cc1)C(=O)Nc1ccc(OCCn2cc(CCNc3cccc4c3C(=O)N(C3CCC(=O)NC3=O)C4=O)nn2)cc1 (centres unmarked) [Compound 12f, 4-((1-butyl-3-(4-(2-(4-(2-((2-(2,6-dioxopiperidin-3-yl)-1,3-dioxoisoindolin-4-yl)amino)ethyl)-1H-1,2,3-triazol-1-yl)ethoxy)phenyl)ureido)methyl)-N-hydroxybenzamide]
